Laboratory results taken from patent publication US11161907B2, “Car-expressing cells against multiple tumor antigens and uses thereof” (Novartis AG, priority 2015, dated 2021).
Entries after “also recorded” stand apart in the source; their conditions may differ. Like-named read-outs stand apart in the source and are kept apart here.

Tests used:
[1] = RAD001 pharmacokinetic analysis in blood of tumor bearing mice; format: in vivo, NSG mice; conditions: for concentration at 24 h: NSG, mouse, whole blood
Protocol: (§1) A concentrated micro-emulsion of 50 mg equal to 1 mg RAD001 was formulated and then resuspended in D5W (dextrose 5% in water) at the time of dosing. Mice were orally dosed daily (via oral gavage) with 200 μl of the desired doses of RAD001. PK analysis: Mice were dosed daily with RAD001 starting 7 days post tumor implantation. Dosing groups were as follows: 0.3 mg/kg, 1 mg/kg, 3 mg/kg, and 10 mg/kg. Mice were bled on days 0 and 14 following the first and last dose of RAD001, at the following time points for PK analysis: 15 minutes, 30 minutes, 1 hour, 2 hours, 4 hours, 8 hours, 12 hours, and 24 hours.

[2] = tested on: huCART19 cells co-cultured with Nalm-6; experiment: 4 day co-culture proliferation assay of CARTs with RAD001; format: cell-based, human
Protocol: To evaluate the functionality of CARTs, the T cells are thawed and counted, and viability is assessed by Cellometer. The number of CAR-positive cells in each culture is normalized using non-transduced T cells (UTD). The impact of RAD001 on CARTs was tested in titrations with RAD001, starting at 50 nM. The target cell line used in all co-culture experiments is Nalm-6, a human pre-B cell acute lymphoblastic leukemia (ALL) cell line expressing CD19 and transduced to express luciferase.
For measuring the proliferation of CARTs, T cells are cultured with target cells at a ratio of 1:1. The assay is run for 4 days, when cells are stained for CD3, CD4, CD8 and CAR expression. The number of T cells is assessed by flow cytometry using counting beads as reference.

NALM6-luc tumors = experiment: NALM6-luc tumor growth with daily oral RAD001; format: in vivo, NSG mice; conditions: daily oral dosing of RAD001 alone, 0.3-10 mg/kg
Protocol: NALM6-luc cells were grown and expanded in vitro in RPMI supplemented with 10% heat inactivated fetal bovine serum. The cells were then transferred to a 15 ml conical tube and washed twice with cold sterile PBS. NALM6-luc cells were then counted and resuspended at a concentration of 10×10^6 cells per milliliter of PBS. The cells were placed on ice and immediately (within one hour) implanted in the mice. NALM6-luc cells were injected intravenously via the tail vein in a 100 μl volume, for a total of 1×10^6 cells per mouse.
as §1

[3] = tested on: humanized CD19 CAR T cells; experiment: In vivo proliferation of huCAR19 CAR T cells with and without RAD001 (FACS); set-up: species or system NSG mice
Protocol: Mice were administered 5×10^6 CAR T cells 7 days after tumor implantation. Cells were partially thawed in a 37 degree Celsius water bath and then completely thawed by the addition of 1 ml of cold sterile PBS to the tube containing the cells. The thawed cells were transferred to a 15 ml falcon tube and adjusted to a final volume of 10 mls with PBS. The cells were washed twice at 1000 rpm for 10 minutes each time and then counted on a hemocytometer. T cells were then resuspended at a concentration of 50×10^6 CAR T cells per ml of cold PBS and kept on ice until the mice were dosed. The mice were injected intravenously via the tail vein with 100 μl of the CAR T cells for a dose of 5×10^6 CAR T cells per mouse. Eight mice per group were treated either with 100 μl of PBS alone (PBS), or humanized CD19 CAR T cells.
as §1, with “Mice were bled on days 0 and 14 following the first and last dose of RAD001, at the following time points for PK analysis: 15 minutes, 30 minutes, 1 hour, 2 hours, 4 hours, 8 hours, 12 hours, and 24 hours.” left out
Based on these doses, huCAR19 CAR T cells were dosed with and without RAD001 to determine the proliferative ability of these cells. […] Mice were monitored via FACS for T cell expansion.

[4] = tested on: subcutaneous SKOV3 tumors; experiment: Established subcutaneous SKOV3 xenograft model of ovarian cancer; format: in vivo, NSG mice; conditions: 3 weeks following adoptive transfer, versus UNT and CD19-27z groups
From the text: All animals were obtained from the Stem Cell and Xenograft Core of the Abramson Cancer Center, University of Pennsylvania. Six to 12-week-old NOD/SCID/γ-chain−/− (NSG) mice were bred, treated and maintained under pathogen-free conditions in-house under University of Pennsylvania IACUC approved protocols. For an established ovarian cancer model, 6 to 12-week-old female NSG mice were inoculated s.c. with 3×10^6 SKOV3 fLuc+ cells on the flank on day 0. After tumors become palpable at about 1 month, human primary T cell (CD4+ and CD8+ T cells used were mixed at 1:1 ratio) were activated, and transduced as described above. After 2 weeks T cell expansion, when the tumor burden was ˜200-300 mm^3, mice were treated with T cells. The route, dose, and timing of T-cell injections is indicated in the individual figure legends. Tumor dimensions were measured with calipers, and tumor volumes calculated using the formula V=½(length×width^2), where length is greatest longitudinal diameter and width is greatest transverse diameter. […] Photon emission from fLuc+ cells was quantified using the “Living Image” software (Xenogen) for all in vivo experiments. […]
Tumor growth was also monitored by Bioluminescent imaging (BLI). BLI was done using Xenogen IVIS imaging system and the photons emitted from fLuc-expressing cells within the animal body were quantified using Living Image software (Xenogen). […]

FRA = FRA (Homo sapiens, UniProt P15328); conditions: cited from earlier work
FRA, sequence (P15328 25-234): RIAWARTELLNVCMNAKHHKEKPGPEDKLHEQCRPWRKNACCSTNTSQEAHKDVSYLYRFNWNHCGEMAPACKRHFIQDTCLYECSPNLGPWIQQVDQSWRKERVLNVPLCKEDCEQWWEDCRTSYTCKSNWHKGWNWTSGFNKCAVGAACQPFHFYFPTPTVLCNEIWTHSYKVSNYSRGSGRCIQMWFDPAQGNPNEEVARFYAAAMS

For `CO[C@H]1C[C@@H]2CC[C@@H](C)[C@@](O)(O2)C(=O)C(=O)N2CCCC[C@H]2C(=O)O[C@H]([C@H](C)C[C@@H]2CC[C@@H](OCCO)[C@H](OC)C2)CC(=O)[C@H](C)/C=C(\C)[C@@H](O)[C@@H](OC)C(=O)[C@H](C)C[C@H](C)/C=C/C=C/C=C/1C` [RAD001, (1R,9S,12S,15R,16E,18R,19R,21R,23S,24E,26E,28E,30S,32S,35R)-1,18-dihydroxy-12-{(1R)-2-[(1S,3R,4R)-4-(2-hydroxyethoxy)-3-methoxycyclohexyl]-1-methylethyl}-19,30-dimethoxy-15,17,21,23,29,35-hexamethyl-11,36-dioxa-4-aza-tricyclo[30.3.1.04,9]hexatriaconta-16,24,26,28-tetraene-2,3,10,14,20-pentaone], the concentration at 24 h ([1]; oral, 0.3 mg/kg, 24 hours after the final dose, read-out: concentration of RAD001) was over 10 nM, the concentration at 24 h ([1]; day 0 PK, 24 hours after dosing, 0.3 mg/kg oral, read-out: RAD001 concentration in the blood) was over 10 nM and the “RAD001 concentration in the blood” value ([1]; day 14 PK, 24 hours after dosing, 0.3 mg/kg oral) was “above 10 nm”. The “stability in the blood” value ([1]; tumor bearing mice) was “fairly stable”, the “proliferation of huCART19 cells” value ([2]; 0.0032 and 0.016 nM RAD001) was “higher than observed without the addition of RAD001” and the “RAD001 concentration at which huCART19 cells expanded” value ([2]; 4 day co-culture with Nalm-6, 1:1) was “less than 0.016 nM”. The “impact on the growth of NALM6-luc tumors” value (NALM6-luc tumors) was “did not have an impact”, the “CAR T cell proliferation in vivo” value ([3]; 0.003 mg/kg RAD001 daily) was “enhancement in CAR T cell proliferation” and the “proliferation of the CAR T cells in vivo” value ([3]; lowest doses of RAD001, daily oral) was “enhanced proliferation”.

B1: C4: fully human anti-FRA scFv/Fab fragment, scFv SEQ ID NO: 98 (protein)
scFv: QLVESGGGLVQPGRSLRLSCTTSGFTFGDYAMIWARQAPGKGLEWVSSISSSSSYIYYADSVKGRFTISRDNAKNSLYLQMNSLRAEDTAVYYCARERYDFWSGMDVWGKGTTVTVSSGGGGSGGGGSGGSAQSALTQPASVSGSPGQSITISCTGTSSDVGSYNLVSWYQQHPGKAPKLMIYEGSKRPSGVSNRFSGSKSGNAASLTISGLQAEDEADYYCQSYDSSLSVVFGGGTKLTVLG
In the case of B1, the “persistence of transferred T-cells in the peripheral blood” value [4] is listed as “higher numbers of CD4+ and CD8+ T cells” and the “binding affinity relative to murine MOv19” value (FRA) is listed as “approximately five-fold less; also recorded: approximately five-fold weaker”.
